Measured values from patent publication US20240065988A1, “COMBINED USE OF KETAMINE AND RETIGABINE (EZOGABINE) FOR THE TREATMENT OF PSYCHIATRIC DISORDERS” (Yeda Research and Development Co. Ltd., priority 2021, published 2024).
“Also recorded” adds a separate entry of the source.

Key:
mice (C57BL/6N) = experiment: Forced swim test (FST), pharmacological manipulation of KCNQ; assay type: in vivo, mouse
Experimental: C57BL/6N and CD-1 (ICR) male mice aged 10 weeks old were used in these experiments. Ketamine hydrochloride (Ketaset, Zoetis, Germany) was diluted in 0.9% NaCl solution (saline) and administered i.p at 1, 5 or 10 mg/kg BW, depending on the experiment design. The KNCQ inhibitor, XE991 (Alomone labs; Cat #: X-100) was diluted in 5% DMSO and administered i.p at 1 or 3 mg/kg BW. The KCNQ activator, Retigabine (Alomone labs; Cat #: R-100), was diluted in 5% DMSO and administered i.p at 1 or 5 mg/kg BW. As control, mice were injected with a DMSO-saline solution (5% DMSO). For all experiments, mice were tested 30 minutes after injection in the FST or over a period of 36 hours after injection in the social boxes.
Previous studies in rodents have shown that KCNQ function can be regulated with highly-specific agonists and antagonists [V. Barrese et al., Annu Rev Pharmacol Toxicol (2018) 58: 625-648]. To further explore the KCNQ channel as a potential therapeutic target of ketamine, it was examined whether pharmacological inhibition of KCNQ alone or in combination with ketamine had any effects on behavior. To accomplish this, a new cohort of mice received two injections with a combination of drugs. […] To assess the effects of ketamine, XE991 (KCNQ inhibitor), and its combination, these mice were exposed to a FST (FIG. 7A, left). […] The inventors then sought to test whether the effects of ketamine could be mimicked, increased or amplified using retigabine, also known as ezogabine, a selective KCNQ (Kcnq2/3) channel activator. Similarly to the previous experiment, mice were treated with saline, (R,S)-ketamine (10 mg/kg BW), or ketamine in combination with two different concentrations of retigabine (1 and 5 mg/kg BW) (FIG. 7A, right).
Next, it was examined whether retigabine could increase the sustained antidepressant-like effects produced by a single injection of ketamine in mice. Accordingly, a new cohort of mice were treated with a single dose of saline, ketamine, or ketamine in combination with retigabine (1 mg/kg) and antidepressant-like behaviors were assessed using the FST, 5—and 7-days post-injection (FIG. 8A). […] Next, as a potential therapeutic strategy for major depressive disorder (MDD), the synergistic effects of ketamine and retigabine was further investigated by testing whether or not retigabine can increase the antidepressant-like effects produced by ketamine in mice. […] Next, it was tested whether retigabine can produce similar synergistic effects in combination with traditional antidepressants. […] Lastly, using a new cohort of Nex-Cre-Ai9 mice, it was tested whether the adjunctive treatment of ketamine with retigabine, or escitalopram alone, could modify the expression of Kcnq2 mRNA in FACS sorted cells from the vHipp (FIG. 8F).

[1] = test system: Kcnq2 mRNA in glutamatergic neurons of the vHipp; experiment: qPCR mRNA levels in FACS-sorted glutamatergic neurons (Ai9+/tdTomato+) and remaining cells (Ai9-/tdTomato-) of Nex-Cre-Ai9 mice; assay type: in vivo, mouse; settings: for mRNA levels of 8 top DEGs: ketamine vs saline
From the text: Conditional transgenic mice expressing tdTomato in glutamatergic neurons of the forebrain (Nex-Cre;Ai9) were generated by crossing homozygous Nex-Cre mice [described in S. Goebbels et al., Genesis (2006) 44: 611-621] with homozygous Ai9 mice [Gt(ROSA)26Sortm9(CAG-tdTomato)Hze] [described in L. Madisen et al., Nat Neurosci (2010) 13: 133-140].
In order to further investigate these findings, a conditional reporter mouse line (Nex-Cre-Ai9) was generated where most glutamatergic neurons of the forebrain, including the hippocampus, are fluorescently labeled by tdTomato (Ai9) except for neurons in the dentate gyrus where Neurod6, the promoter used to target glutamatergic neurons driving Cre expression, is not expressed (FIG. 12) [J. Hartmann et al., Mol Psychiatry (2017) 22: 466-475]. Following the same paradigm used in the original cohort, mice were group-housed and injected with (R,S)-ketamine (10 mg/kg BW) or a saline vehicle control. The vHipp of these mice was dissected […] later (i.e. 2 days). Single-cell suspensions were prepared and individual cells were sorted using fluorescence activated cell sorting (FACS) (FIG. 2A) into two separate pools of cells from each mouse. One pool contained glutamatergic neurons (Ai9+) and a second contained all remaining cell types of the vHipp (Ai9-) (FIG. 2A and FIGS. 13A-C). […] These two separate pools of cells were then used to validate the scRNA-seq findings in glutamatergic neurons at the population level using quantitative real-time polymerase chain reaction (qPCR).
Next, it was tested whether retigabine can produce similar synergistic effects in combination with traditional antidepressants.

SMILES: CNC1(c2ccccc2Cl)CCCCC1=O (racemic) [ketamine, (R,S)-ketamine]
- immobility time during the FST (mice (C57BL/6N); (R,S)-ketamine 10 mg/kg/BW, dose series (FIG. 8E, FIG. 26A)): significant reduction of immobility time
- antidepressant-like effects in the FST (mice (C57BL/6N); (R,S)-ketamine 1 and 5 mg/kg/BW): failed to produce antidepressant-like effects
- immobility time during the FST (mice (C57BL/6N); ketamine 10 mg/kg BW alone vs saline (FIGS. 23A-B)): significant decrease in immobility time; also recorded: significant effect
- FST effect at day 7 post-injection (mice (C57BL/6N); single dose of ketamine alone): disappeared by day 7
- duration of the FST effect post-injection (mice (C57BL/6N); single dose of ketamine alone): up to five days
- immobility time during the FST, sustained effect (mice (C57BL/6N); single dose of ketamine alone, several days post-injection (day 5)): significant decrease in immobility time
- Kcnq2 mRNA fold change (FC) after ketamine treatment ([1]; Ai9+ cells, ketamine 10 mg/kg BW vs saline, 36 hours, p<0.001): 2.2
- mRNA levels of 8 top DEGs ([1]; Ai9+ cells): significantly dysregulated
- mRNA levels of 8 top DEGs ([1]; Ai9- cells): No significant differences
- mRNA expression of Kcnq3 after ketamine treatment ([1]; any of the experiments: scRNA-seq, FACS-sorted cells, primary neurons (Table 2B, FIGS. 17A-C)): no significant differences
- Kcnq2 mRNA ([1]; glutamatergic neurons (tdTomato+) of the vHipp, two days after treatment, ketamine 10, escitalopram 10, retigabine 1 mg/kg/BW): significant increase of Kcnq2 mRNA
- total number of Ai9+ sorted cells, ketamine vs saline ([1]; ketamine 10 mg/kg BW, 36 hours): No significant differences
